pEC50, pIC50: −log10 of the molar value.

Assay [1] deals with human liver cancer cells SMMC7721 xenograft. The assay is described as follows: In-vivo growth of SMMC7721 xenografts in nude mice. Also noted: species or system BALB/c nude mice. Particulars: Mus musculus, SMMC-7721, ip, S-7721 xenograft, vs DMSO solvent control, read-out: Curative effect (inhibition rate %) of tumor weight; for inhibition in vivo at 60 mg/kg: 60 mg/kg intraperitoneal once a day; for inhibition in vivo at 90 mg/kg: 90 mg/kg intraperitoneal once a day. The method, then: (§1) RPMI1640 and DMEM culture solutions: Hyclone Company; inactivated fetal bovine serum: Hyclone Company, preserved at −20° C.; trypsin: Amersco Company; and 0.4% trypan blue: Sigma Company;
(§2) (3) Observation of growth of tumors in nude mice: the activities (including food intake, traits of urine and stool, mental state and the like) of the nude mice and the tumor growth time and growth situation of the transplanted tumors were observed every day, the body weight and the size of the tumors were measured once every 2-3 days. The long diameter a and the short diameter b (mm) of each tumor were measured by a vernier caliper to calculate the volume, wherein the volume V=π1/2·ab^2 (mm^3);
(§3) (4) sacrifice of animals: the mice were anesthetized and photoed after treatment experiments; the nude mice were sacrificed by breaking neck, the tumor tissues were stripped under sterile conditions and the weight of the tumors was weighed; and the effects of the drugs on pathology and toxicity of the various organs and tissues were detected.

The subject of assay [2] is human cervical cancer Hela cell lines. The experiment in a line: MTT growth inhibition, Hela cells. The format is cell-based. The settings on record: Homo sapiens, 72 h after treatment, read-out: Drug concentration (IC50) at which 50% cancer cells survived. From the text: (§4) Cell lines and cell culture: human lung cancer cells A549 and H460, human breast cancer cells MCF-7 and MDA-MB-231, human gastric cancer cells BGC-823, human prostate cancer cells PC-3, human chronic leukemia cells K562, human lymphoma cells U937, human liver cancer cells SMMC7721 and HepG2, human colon cancer cells HT29, human pancreatic cancer cells PANC-1 and BxPC3, human cervical cancer Hela cell lines, human brain tumor cells Daoy, human neuroma cells D54 and human oral epidermoid cancer cells KBV200 line with strong drug resistance, mouse melanoma cells B16, and highly metastatic Lewis lung cancer cell lines were purchased from American Type Culture Collection of the U.S. These cells were cultured with DMEM and RPMI-1640 culture solutions separately.
(§5) The procedure was as follows:
(§6) (1) 0.25% trypsin was used to digest cancer cells in a logarithmic growth phase to prepare a single-cell suspension, the concentration of cells was adjusted to 5×10^4/mL, and the adjusted suspension was inoculated into a 96-well culture plate with 100 μl per well;
(§7) (2) The culture plate was transferred into a 37° C. incubator with a saturated humidity and 5% of CO2 and cultured for 24 h; the compounds and the intermediates thereof obtained in embodiments 1-7 and the compound as represented by formula (IIIa) or the positive control anti-cancer drug with the concentration of 1-1000 μM/L were added to enable the final concentration to be 0.1-1500 μM/L. Control wells (only added with 200 μl of cell suspension) and drug-free blank control wells (containing the solvent of 0.01% DMSO) were set, each group included 8 wells, and the plate was placed into the 37° C. incubator with saturated humidity and 5% of CO2 for culturing;
(§8) (3) The 96-well plate was taken out at 48 h and 72 h after dosing, the original culture medium was carefully removed by suction, 100 μl of serum-free DMEM culture medium and 10 μl of MTT (5 mg/mL) solution were added in each well. The plate was continuously cultured for another 4 h and then the culture was terminated;
(§9) (4) The supernatant in the wells was carefully removed by suction, each well was added with 150 μl of DMSO and shaked at room temperature for 10-15 min to fully dissolve crystals.
(§10) (5) Colorimetric analysis: the wavelength was selected as 570 nm, the light absorbance (A value) of each well was determined on the microplate reader and the results were recorded; the experiment was repeated for three times;
(§11) (6) the experimental results were calculated according to the following formula: relative survival rate=(A value of each experimental group/A value of cell control group)×100%
(§12) Calculation of median-effect concentration (IC50, namely the drug concentration at which the inhibition rate is 50%, also known as half inhibitory concentration):
(§13) IC50 of the detected component was calculated by using a regression equation.

Another assay relates to human neuroma cells D54. The experiment in a line: MTT growth inhibition, D54 cells. The format is cell-based. The settings on record: Homo sapiens, 72 h after treatment, read-out: Drug concentration (IC50) at which 50% cancer cells survived.
Source text: as §4, §5, §6, §7, §8, §9, §10, §11, §12, §13

For assay [3], the system named is human breast cancer cells MDA-MB231 xenograft. The experiment in a line: In-vivo growth of MDA-MB231 xenografts in nude mice. Particulars: Mus musculus, MDA-MB-231, ip, MB-231 xenograft, vs DMSO solvent control, read-out: Curative effect (inhibition rate %) of tumor weight; for inhibition in vivo at 60 mg/kg: 60 mg/kg intraperitoneal once a day; for inhibition in vivo at 90 mg/kg: 90 mg/kg intraperitoneal once a day. Also noted: species or system BALB/c nude mice. The method, then: as §1, §2, §3

Assay [4] concerns human liver cancer cells HepG2. The assay is described as follows: MTT growth inhibition, HepG2 cells. The format is cell-based. The settings on record: 72 h after treatment, read-out: Drug concentration (IC50) at which 50% cancer cells survived.
The subject of assay [5] is human chronic leukemia cells K562. The assay is described as follows: MTT growth inhibition, K562 cells. The format is cell-based. The settings on record: 72 h after treatment, read-out: Drug concentration (IC50) at which 50% cancer cells survived.
Source text: as §4, §5, §6, §7, §8, §9, §10, §11, §12, §13

In assay [6] the test system is human oral epidermoid cancer cells KBV200. The assay is described as follows: MTT growth inhibition, KBV200 cells. In kind it is cell-based. The settings on record: 72 h after treatment, read-out: Drug concentration (IC50) at which 50% cancer cells survived.
Source text: as §4, §5, §6, §7, §8, §9, §10, §11, §12, §13

For a further assay, the system named is E-cadherin. The assay is described as follows: Western Blotting, increase of E-cadherin level. In kind it is cell-based. Particulars: liver cancer cells, Lewis lung cancer cells and other cancer cell lines and tumor tissue protein lysates, 48 h treatment, read-out: Effective concentration to increase E-cadherin by 50%. The source says:
(§14) Antibodies: primary antibodies of VEGFR, EGFR, c-Met, K-Ras, H-Ras, Akt, NF-κB, Cyclin D1, ER-alpha, Dvl-1, Dvl-2, Dvl-3, MMP-9, MMP2, β-catenin, Bcl-2, Bax, p53, p21, E-cadherin and Caspase3 protein, purchased from American Cell Signaling Technology Company and Santa Cruz Technology Company; and H3 acetylation, H4 acetylation and HDAC (HDAC3, HDAC4 and the like) Antibody Sample Kits, purchased from Cell Signaling Technology Company of the U.S.
(§15) (3) polyacrylamide gel electrophoresis (SDS-PAGE): an equal amount of protein lysate sample was used to separate protein, film transfer, and blocking, treated with appropriate primary antibodies and secondary antibodies in sequence, and the film was washed, then the color was developed with ECL kit, and a blot protein band was detected by exposure of an X-ray film; and a Gel-Pro Analyzer was used for quantitative analysis of gray degree, optical density value of the control group and the drug treatment group in various concentration were respectively compared with that of internal reference, the obtained ratios were respectively compared with the control group, and the protein expression level was semi-quantified.
(A western blot detects proteins with antibodies after separation by electrophoresis.)

In a further assay the test system is Caspase3. The assay is described as follows: Western Blotting, increase of Caspase3 level. The settings on record: liver cancer cells, Lewis lung cancer cells and other cancer cell lines and tumor tissue protein lysates, 48 h treatment, read-out: Effective concentration to increase Caspase-3 by 50%. The format is cell-based.
Source text: as §14, §15

Another assay has as its system H-Ras. The experiment in a line: Western Blotting, H-Ras level. The format is cell-based. Particulars: human liver cancer cells, Lewis lung cancer cells and other cancer cell lines and tumor tissues, read-out: Effective concentration (IC50) for inhibition of H-Ras.
Source text: as §14, §15

Another assay deals with HDAC4. The experiment in a line: Western Blotting, HDAC4 level. In kind it is cell-based. The settings on record: human liver cancer cells, Lewis lung cancer cells and other cancer cell lines and tumor tissues, read-out: Effective concentration (IC50) for inhibition of HDAC4.
Source text: as §14, §15

The next assay concerns p53. The assay is described as follows: Western Blotting, increase of p53 level. The format is cell-based. The settings on record: liver cancer cells, Lewis lung cancer cells and other cancer cell lines and tumor tissue protein lysates, 48 h treatment, read-out: Effective concentration to increase p53 by 50%.
Source text: as §14, §15

Turning to `CCNC(=O)CC[C@H](N)C(=O)OC` [Compound IIa, theanine methyl ester], the values for the inhibition in vivo at 60 mg/kg in assay [1] and in assay [3] were 36.6% and 31.1%, respectively. Also, the values for the inhibition in vivo at 90 mg/kg in assay [1] and in assay [3] were 38.2% and 36.1%, respectively. The pIC50 in assay [2] is 3.48; with human neuroma cells D54, 3.40; in assay [4] it was 3.22; in assay [5], 3.46; in [6], 3.42.
As to `CCNC(=O)CC[C@@H](NC(=O)c1cc2cc(Cl)ccc2oc1=O)C(=O)OCC` [Compound Ic, (R)-2-(6-CI-2-oxo-2H-benzopyran-3-carboxamido)-5-ethylamino-5-oxo-pentanoic acid ethyl ester], the inhibition in vivo at 60 mg/kg came to 63.2% in [1] and 54.1% in assay [3]. For the same compound, the inhibition in vivo at 90 mg/kg in assay [1] was 69.2%; in assay [3], 65.5%. Further, the pIC50 is 3.46 in [2]; 4.01 in the assay with human neuroma cells D54; > 4.19 in the assay on H-Ras; 4.03 in assay [4]; > 4.30 in the assay with HDAC4; 3.98 in [5]. Also, the pIC50 in [6] is 4.01. For the same compound, the pEC50 in the assay on E-cadherin is > 4.19; with Caspase3 it was > 4.00; in the assay on p53, > 4.00.
As for `CCNC(=O)CC[C@@H](NC(=O)c1cc2cc(Br)cc(Br)c2oc1=O)C(=O)OCC` [Compound Ih, (R)-2-(6,8-dibromo-2-oxo-2H-benzopyran-3-carboxamido)-5-ethylamino-5-oxo-pentanoic ethyl ester], the inhibition in vivo at 60 mg/kg in assay [1] amounted to 57.7%; in [3], 55.1%. In addition, the figures for the inhibition in vivo at 90 mg/kg in assay [1] and in assay [3] were 78.7% and 75.1%, respectively. For the same compound, the pIC50 in assay [2] was 4.24; in the assay on human neuroma cells D54, 4.06; in the assay on H-Ras it was > 4.19; in [4] it was 4.25; with HDAC4, > 4.30; in assay [5] it was 4.10. Also, in assay [6], the pIC50 is 4.14. Also, the pEC50 with E-cadherin, with Caspase3 and in the assay with p53 was > 4.15 throughout.
On to `CCNC(=O)CCC(NC(=O)c1cc2cc(F)ccc2oc1=O)C(=O)OCC` (stereo in doubt) [Compound Ie, (R)-2-(6-F-2-oxo-2H-benzopyran-3-carboxamido)-5-ethylamino-5-oxo-pentanoic acid ethyl ester], for which the inhibition in vivo at 60 mg/kg in [1] amounted to 64.8%; in assay [3] it was 50.9%. Also, the values for the inhibition in vivo at 90 mg/kg in assay [1] and in assay [3] were 69.9% and 60.9%, respectively. Moreover, the pIC50 in assay [2] was 4.15; with human neuroma cells D54, 3.82; with H-Ras it was > 4.22; in assay [4], 3.64; with HDAC4, > 4.30; in assay [5], 3.89. For the same compound, the pIC50 in assay [6] was 3.68. For the same compound, the pEC50 with E-cadherin is > 4.19; in the assay on Caspase3, > 4.00; with p53 it was > 4.00.
Regarding `CCNC(=O)CC[C@@H](NC(=O)c1cc2cc(Cl)cc(Cl)c2oc1=O)C(=O)OCC` [Compound Ig, (R)-2-(6,8-dichloro-2-oxo-2H-benzopyran-3-carboxamido)-5-ethylamino-5-oxo-pentanoic ethyl ester], the figures for the inhibition in vivo at 60 mg/kg in assay [1] and in assay [3] were 53.6% and 59.1%, respectively. Moreover, the inhibition in vivo at 90 mg/kg in assay [1] amounted to 70.6%; in assay [3], 72.1%. The pIC50 in assay [2] was 4.18; in the assay with human neuroma cells D54, 4.10; in the assay with H-Ras it was > 4.19; in [4], 4.34; in the assay with HDAC4, > 4.30; in [5] it was 4.24. For the same compound, the pIC50 in [6] was 4.08. Also, the pEC50 with E-cadherin, in the assay on Caspase3 and with p53 was > 4.15 in each case.
On to `CCNC(=O)CCC(NC(=O)c1cc2ccccc2oc1=O)C(=O)OCC` (stereo not shown) [Compound Ib, ethyl 5-ethylamino-5-oxo-2-(2-oxo-2H-benzopyran-3-carboxamido)pentanoate], for which the inhibition in vivo at 60 mg/kg in assay [1] turned out to be 60.8%; in [3] it was 59.1%. Moreover, the inhibition in vivo at 90 mg/kg is 66.6% in [1] and 69.1% in [3]. In addition, the pIC50 in assay [2] is 4.28; in the assay on human neuroma cells D54 it was 3.78; in the assay with H-Ras, > 4.12; in assay [4], 3.65; in the assay on HDAC4, > 4.22; in assay [5] it was 3.82. In assay [6], the pIC50 was 3.87. The results for the pEC50 in the assay on E-cadherin, with Caspase3 and in the assay on p53 were > 4.15, > 3.92 and > 3.92, respectively.
Regarding `CCNC(=O)CC[C@H](N)C(=O)OCC` [Compound IIb, theanine ethyl ester], the inhibition in vivo at 60 mg/kg in [1] was 44.6%; in assay [3] it was 44.5%. In addition, the inhibition in vivo at 90 mg/kg in [1] was 46.8%; in assay [3], 47.8%. Further, the pIC50 was 3.30 in assay [2]; 3.52 with human neuroma cells D54; 3.52 in assay [4]; 3.22 in assay [5]; 3.52 in [6].

For the origin of these results see patent US9518038B2, “Condensation product of theanine derivative and carboxylic acid coumarin derivative, its intermediate, preparation method and use thereof” (SHANDONG YINGDONG YINGHAO BIOTECHNOLOGY, INC., priority 2012, dated 2016).
